Reference: patent publication US10611847B2, “ABCG2 monoclonal antibody and uses thereof” (PEKING UNIVERSITY, priority 2016, dated 2020)

How the values were obtained:
Format in all cases: cell-based
[1] = tested on: A549; assay: Drug sensitization test (MTT); settings: 72 hours
From the text: (§1) MCF7 Flavo-resistant strain and A549 cisplatin-resistant strain (A549/cis) were used as the experimental cell line with high ABCG2 expression, and the corresponding non-resistant cells MCF7 and A549 with relatively low ABCG2 expression were used as control cell lines in the drug sensitization test. FTC is a specific inhibitor of ABCG2, so the cell group added with FTC was used as a positive control group; the cell group added with a corresponding volume of DMEM high glucose medium or RPMI-1640 medium was used as a negative control group. […] The ABCG2-PKU1, ABCG2-PKU1-1 and ABCG2-PKU2 antibodies prepared in Example 3, as well as mitoxantrone (MTX) and FTC were added. After 72 hours, MTT test was carried out and the absorbance was measured. […] The ratio of the IC50 of the drug-resistant cells to the IC50 of the original cells was calculated, which was the relative drug resistance. Breast cancer cell MCF7 and Flavopiridol (Flavo)-resistant strain MCF7/Flavo cells, lung cancer A549 cells and cisplatin (Cis)-resistant strain A549/Cis cells were divided into 11 groups in the growth inhibition analysis: […]

[2] = tested on: A549/cis (Over-expressing ABCG2); assay: Drug sensitization test (MTT); settings: 72 hours
From the text: as §1

[3] = tested on: MCF 7; assay: Drug sensitization test (MTT); settings: 72 hours
From the text: as §1

[4] = tested on: MCF 7/Flavo (Over-expressing ABCG2); assay: Drug sensitization test (MTT); settings: 72 hours
From the text: as §1

[5] = tested on: MCF7, MCF7/ADM, MCF7/FLV1000, MCF7/Mitoxantrone, A549, A549/cis, L02 and L02/Oct4 cells; assay: Tumor cell growth inhibition analysis; settings: agent alone; d1-d6 (FIG. 8)
Protocol: (1) Tumor cell MCF7 and the drug-resistant strains MCF7/ADM, MCF7/FLV1000, MCF7/Mitoxantrone obtained and identified in Example 4, A549 and A549/cis, L02 and L02/Oct4 cells were seeded in a 96-well plate, 3000 cells/90 μl/well, 6 replicate wells, incubated at 37° C. overnight.
(2) According to the following Tables 6-1 and 6-2, mitoxantrone, commercial ABCG2 antibody (BXP-21) and the three ABCG2 antibodies ABCG2-PKU1, ABCG2-PKU1-1 and ABCG2-PKU2 obtained in Example 3 were added to the plate. The plate was then incubated in a, 5% CO2 incubator at 37° C. 10 μl of DMSO was added to the well at d1, d2, d3, d4, d5, and d6, and the absorbance was measured using an ELISA instrument after 2 hours.
(3) Inhibitory rate calculation: OD value of drug-treatment—blank OD value/OD value without drug-treatment—blank OD value, a growth inhibition curve was plotted.

Compound	Relative Drug Resistance ([1]; mitoxantrone + agent at 5 μM)	Relative Drug Resistance ([2]; mitoxantrone + agent at 5 μM)	Relative Drug Resistance ([3]; mitoxantrone + agent at 5 μM)	Relative Drug Resistance ([4]; mitoxantrone + agent at 5 μM)	inhibition of tumor cell growth [5]	Relative Drug Resistance ([1]; mitoxantrone alone)	Relative Drug Resistance ([2]; mitoxantrone alone)	Relative Drug Resistance ([3]; mitoxantrone alone)	Relative Drug Resistance ([4]; mitoxantrone alone)
COc1ccc2c3c([nH]c2c1)[C@H](C=C(C)C)N1C(=O)[C@@H]2CCCN2C(=O)[C@@H]1C3 [FTC]	1.13	0.92	1.03	0.77	–	–	–	–	–
O=C1c2c(O)ccc(O)c2C(=O)c2c(NCCNCCO)ccc(NCCNCCO)c21 [Mitoxantrone, mitoxantrone]	–	–	–	–	could inhibit the growth	1.00	1.00	1.00	1.00
